From PubChem BioAssay (NCI)
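Values below derive from 48-hour exposures of cells grown in 96-well plates, with endpoints linearly interpolated between the two concentrations bracketing the appropriate inhibition level. The concentration for 50% growth inhibition is given as GI50. At the TGI there is no net growth.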

Experiments:
Assay in all cases: NCI-60 cell line screen, 48 h
SNB-19 CNS = tested on: SNB-19 CNS
K-562 leukemia = tested on: K-562 leukemia
COLO 205 colon = tested on: COLO 205 colon
OVCAR-5 ovarian = tested on: OVCAR-5 ovarian
KM12 colon = tested on: KM12 colon
SF-268 CNS = tested on: SF-268 CNS
HS 578T breast = tested on: HS 578T breast
SK-MEL-28 melanoma = tested on: SK-MEL-28 melanoma
HCT-116 colon = tested on: HCT-116 colon
SF-295 CNS = tested on: SF-295 CNS

Row | Structure (SMILES) | GI50 (SNB-19 CNS) [µM] | TGI (SNB-19 CNS) [µM] | GI50 (K-562 leukemia) [µM] | TGI (K-562 leukemia) [µM] | GI50 (COLO 205 colon) [µM] | TGI (COLO 205 colon) [µM] | GI50 (OVCAR-5 ovarian) [µM] | TGI (OVCAR-5 ovarian) [µM] | GI50 (KM12 colon) [µM] | TGI (KM12 colon) [µM] | GI50 (SF-268 CNS) [µM] | TGI (SF-268 CNS) [µM] | GI50 (HS 578T breast) [µM] | TGI (HS 578T breast) [µM] | GI50 (SK-MEL-28 melanoma) [µM] | TGI (SK-MEL-28 melanoma) [µM] | TGI (HCT-116 colon) [µM] | TGI (SF-295 CNS) [µM] | GI50 (HCT-116 colon) [µM] | GI50 (SF-295 CNS) [µM]
1 | CCCCNC(=O)NS(=O)(=O)c1ccc(N2N=C(c3cc(C)ccc3C)CC2c2cc(OC)c(OC)c(OC)c2)cc1 (stereo unspecified) | 2.75 | 12.7 | 3.14 | 12.7 | 2.6 | 5.19 | 3.39 | 11.9 | 2.25 | 5.26 | 3.16 | 11.7 | 2.2 | 5.78 | 1.97 | 4.73 | – | – | – | –
2 | O=c1[nH]c(-c2ccc(-c3nc4cc([N+](=O)[O-])ccc4c(=O)[nH]3)cc2)nc2cc([N+](=O)[O-])ccc12 | – | > 100 | – | > 100 | – | > 100 | – | > 100 | – | > 100 | – | – | – | – | – | > 100 | > 100 | > 100 | – | –
3 | CCOC(=O)C1=C(Nc2cccc3ccccc23)OC/C1=N\NC(=O)c1ccccc1O | – | > 100 | – | > 100 | – | 29.3 | – | > 100 | – | > 100 | – | > 100 | – | – | – | > 100 | > 69.6 | > 100 | – | –
4 | O=C(Nc1nc(=S)c2c(ncn2CCO)[nH]1)c1ccccc1 | – | > 100 | – | > 100 | – | > 100 | – | > 100 | – | > 100 | – | > 100 | – | – | – | – | > 100 | > 100 | – | –
5 | CS/C(=N\c1nccs1)NC(=O)c1cccc(Cl)c1 | – | > 100 | – | > 100 | – | > 100 | – | > 100 | – | > 100 | – | > 100 | – | – | – | > 100 | > 100 | > 100 | – | –
6 | C=CCC(OCCOCC)c1cc(OCCOCC)ccc1OC (stereo unspecified) | – | > 100 | – | > 100 | – | > 100 | – | > 100 | – | > 100 | – | > 100 | – | – | – | > 100 | – | > 100 | – | –
7 | CCCC(Sc1ccccc1)P(=O)(c1ccccc1)c1ccccc1 (stereo unspecified) | – | > 100 | – | > 100 | – | > 100 | – | – | – | > 100 | – | > 100 | – | – | – | > 100 | > 100 | > 100 | – | –
8 | COC(=O)c1cc(-c2cccn2C)c2c(c1C(=O)OC)c1ccccc1n2C | – | > 100 | – | > 100 | – | > 100 | – | – | – | > 100 | – | – | – | – | – | > 100 | – | > 100 | – | –
9 | CCC1CCc2c(OC)ccc(OCC(=O)O)c2C1=O (stereo unspecified) | – | > 100 | – | > 100 | – | > 100 | – | > 100 | – | > 100 | – | > 100 | – | – | – | > 100 | – | > 100 | – | –
10 | COC(=O)C1=C(C(=O)OC)SC(=C(N=Nc2ccccc2)c2ccccc2)S1 | – | > 100 | – | > 100 | – | > 100 | – | > 100 | – | > 100 | – | > 100 | – | – | – | > 100 | > 100 | > 100 | – | –
11 | C=C1CCC2[C@@H](CCC3[C@]2(C)CCC[C@]3(C)C(=O)OC)C1CCO (stereo partly specified) | – | 28 | – | 26.1 | – | 27.9 | – | 33.2 | – | 25.2 | – | 29.1 | – | – | – | 28.1 | 19.2 | 30.9 | – | –
12 | O=C1c2ccccc2CC1C1(O)C(=O)Nc2ccccc21 (stereo unspecified) | – | > 100 | – | > 100 | – | > 100 | – | > 100 | – | – | – | > 100 | – | – | – | > 100 | > 100 | > 100 | – | –
13 | Cc1ccc(Sc2ccc(C)cc2[N+](=O)[O-])c([N+](=O)[O-])c1 | – | > 100 | – | > 100 | – | > 100 | – | > 100 | – | > 100 | – | > 100 | – | – | – | > 100 | > 100 | > 100 | – | –
14 | COc1cc(/C=C/C(=O)c2sc(NNC(C)=O)nc2C)ccc1O | – | – | – | > 100 | – | > 100 | – | > 100 | – | > 100 | – | > 100 | – | – | – | > 100 | – | > 100 | – | –
15 | C=CC1C(OC2OC(CO)C(O)C(O)C2O)OC=C(C(=O)OC)C1CC=O (stereo unspecified) | – | > 100 | – | > 100 | – | > 100 | – | – | – | > 100 | – | > 100 | – | – | – | > 100 | – | > 100 | – | –
16 | CC1CCC(C(C)C)C(O[C@@H]2OC(=O)C[C@@H]2Sc2ccccc2)C1 (stereo partly specified) | – | > 100 | – | 42.6 | – | 36.8 | – | 65.5 | – | 54.1 | – | > 100 | – | – | – | 85.7 | 74 | 54.6 | – | –

Row | Structure (SMILES) | GI50 (SNB-19 CNS) [µM] | TGI (SNB-19 CNS) [µM] | GI50 (K-562 leukemia) [µM] | TGI (K-562 leukemia) [µM] | GI50 (COLO 205 colon) [µM] | TGI (COLO 205 colon) [µM] | GI50 (OVCAR-5 ovarian) [µM] | TGI (OVCAR-5 ovarian) [µM] | GI50 (KM12 colon) [µM] | TGI (KM12 colon) [µM] | GI50 (SF-268 CNS) [µM] | TGI (SF-268 CNS) [µM] | GI50 (HS 578T breast) [µM] | TGI (HS 578T breast) [µM] | GI50 (SK-MEL-28 melanoma) [µM] | TGI (SK-MEL-28 melanoma) [µM] | TGI (HCT-116 colon) [µM] | TGI (SF-295 CNS) [µM] | GI50 (HCT-116 colon) [µM] | GI50 (SF-295 CNS) [µM]
17 | C1CCOC2(CCC3(CC2)OCCCCO3)OC1 | – | > 100 | – | > 100 | – | > 100 | – | – | – | > 100 | – | > 100 | – | – | – | > 100 | > 100 | – | – | –
18 | O=C(CCc1cc(-c2ccccc2)nc(=S)[nH]1)Nc1ccccc1[N+](=O)[O-] | – | > 100 | – | > 100 | – | > 100 | – | > 100 | – | > 100 | – | > 100 | – | – | – | > 100 | > 100 | > 100 | – | –
19 | CC#CC1C(OC(=O)c2ccccc2)CCCC1(CI)N=[N+]=[N-] (stereo unspecified) | – | – | – | > 100 | – | > 100 | – | > 100 | – | > 100 | – | > 100 | – | – | – | – | > 100 | > 100 | – | –
20 | CC(=O)NC1CC2Oc3ccc(C)cc3C(C)(O2)C1O (stereo unspecified) | – | > 100 | – | > 100 | – | > 100 | – | – | – | > 100 | – | – | – | – | – | > 100 | > 100 | > 100 | – | –
21 | N=C(N)c1ccc(COc2ccccc2OCc2ccc(C(=N)N)cc2)cc1 | 41.4 | > 100 | 34.8 | > 100 | > 100 | > 100 | > 100 | > 100 | – | – | 31.8 | 86 | 18.2 | 52.6 | 70 | > 100 | > 100 | 82.4 | 35.2 | 24.1
22 | COCCNc1cc(NC(=O)N2CCCc3cc(CN4CCN(C)CC4=O)c(C=O)nc32)ncc1C#N | > 50 | > 50 | – | – | 27.2 | > 50 | > 50 | > 50 | > 50 | > 50 | > 50 | > 50 | 23.7 | > 50 | > 50 | > 50 | > 50 | > 50 | 25.6 | > 50
23 | CCOC(=O)c1nc(-c2ccccc2)oc1OCC | – | > 100 | – | > 100 | – | > 100 | – | – | – | > 100 | – | > 100 | – | – | – | > 100 | > 100 | > 100 | – | –
24 | CCOc1ccccc1/C=N\N=C(\N)N/N=C/c1ccccc1OCC | 4.49 | > 100 | 0.707 | > 100 | – | – | – | – | 1.89 | > 100 | 3.11 | > 100 | 1.65 | 7.26 | 4.51 | > 100 | > 100 | > 100 | 3.12 | 1.36
25 | C[C@@H](NC1CCC[C@H]1O)c1ccccc1 (stereo partly specified) | – | > 100 | – | > 100 | – | > 100 | – | > 100 | – | > 100 | – | – | – | – | – | > 100 | > 100 | > 100 | – | –
26 | CCN(CC)CC(C(=O)Nc1c(C)cccc1C)/C(C)=N\NC(=O)c1ccncc1 (stereo unspecified) | – | > 100 | – | – | – | > 100 | – | > 100 | – | > 100 | – | > 100 | – | – | – | > 100 | > 100 | > 100 | – | –
27 | COc1cc(C)c(O)c(C(=O)O)c1 | – | > 100 | – | > 100 | – | > 100 | – | > 100 | – | > 100 | – | > 100 | – | – | – | > 100 | > 100 | > 100 | – | –
28 | C/C=C/C=C/CCCCCCCCCCCCCC1(OC)C=CC(CC(=O)OC)OO1 (stereo unspecified) | – | 31.7 | – | > 50.1 | 1.76 | 3.19 | – | – | 1.56 | 3.13 | – | 34 | – | – | – | 28.7 | 21.7 | 6.34 | – | 2.58
29 | COc1cc(C(=O)/C=C/c2cccnc2Nc2ccccc2)cc(OC)c1OC | 1.48 | 2.86 | – | – | 1.29 | 2.62 | 1.54 | 3.11 | 0.929 | 2.54 | 1.55 | 3.09 | 2.15 | 7.93 | 1.58 | 2.93 | 1.31 | 3.78 | 0.337 | 1.87
30 | N#Cc1cc([N+](=O)[O-])ccc1NC(=O)/C(=N/N)C(C(=O)c1ccc(Cl)c(Cl)c1)C1OC(=O)c2ccccc21 (stereo unspecified) | – | > 100 | – | > 100 | – | > 100 | – | > 100 | – | > 100 | – | > 100 | – | – | – | > 100 | > 100 | > 100 | – | –
31 | O=C1CCC2(c3ccccc3)Nc3ncccc3N12 (stereo unspecified) | – | – | – | > 100 | – | > 100 | – | > 100 | – | > 100 | – | > 100 | – | – | – | > 100 | – | > 100 | – | –
32 | CC(=O)Nc1ccc(/C=C/C(=O)c2sc(-c3nc(C)c(C(=O)/C=C/c4ccc(NC(C)=O)cc4)s3)nc2C)cc1 | – | > 100 | – | > 100 | – | > 100 | – | > 100 | – | > 100 | – | – | – | – | – | > 100 | > 100 | > 100 | – | –
